From article PMC7010350 (ACS chemical biology, 2019)

Legend:
Type in all cases: physicochemical
[1] = Solubility of the lyophilized peptide on resuspension in water or methanol; conditions: aqueous suspension relyophilized and resuspended in methanol
[2] = Thermostability, heat treatment at 95 °C for 2 h, LC-MS
[3] = Susceptibility of the disulfide bond to reduction with DTT or β-mercaptoethanol; conditions: LC-MS

Question: With pandonodin as the substance, how does the “solubility in methanol (in words)” value [1] read?
Answer: The value was “readily dissolved”.

Question: And the “thermally induced unthreading (in words)” value [2]?
Answer: The value was “only minimal unthreading”.

Question: And the “peptide reduced, 20 mM DTT with heating” value ([3]; 20 mM DTT, 95 °C for 2 h)?
Answer: Its value is “less than 10%”.

Question: What about the “reduction of the disulfide bond, 20 mM DTT, room temperature” value ([3]; 20 mM DTT, room temperature 1 h, aqueous peptide 5.8 mg/mL) of the same substance?
Answer: The value was “no reduction products were observed”.

Question: And the “peptide reduced, 5% β-ME with heating (in words)” value ([3]; 5% (~641 mM) β-mercaptoethanol, 95 °C for 2 h)?
Answer: The value was “a majority of pandonodin was reduced”.

Question: Which “thermally induced unthreading (in words)” value [2] does the source give for pandonodin C16A C21A [pandonodin AA] here?
Answer: The value was “significantly more pandonodin AA unthreaded than did wild-type pandonodin”.
